{"source": "patent US20030162815A1", "about": "“Thiazolidinedione salt for treatment of diabetes mellitus” (priority 2003, published 2003)", "assay_type_in_all_cases": "physicochemical", "key": {"[1]": {"assay": "Solubility of the Hydrobromide in water (visual, confirmed by HPLC assay of a saturated solution)", "conditions": "thermodynamic from solid, product of Example 3", "from_the_text": "The visual solubility was confirmed by an HPLC assay of a saturated solution."}, "[2]": {"assay": "Solid state stability of the Hydrobromide (storage for 1 month, HPLC assay for final content and degradation products)", "conditions": "product of Example 3", "method": "The solid state stability of the drug substance was determined by storing approximately 1.0 g of the material in a glass bottle at i) 40° C./75% Relative Humidity (RH), open exposure, for 1 month and b) at 50° C., closed, for 1 month. The material was assayed by HPLC for final content and degradation products in both cases."}, "[3]": {"assay": "Flow properties of the Hydrobromide (Hausner Ratio, bulk density vs tapped bulk density)", "conditions": "ratio between bulk density and tapped bulk density; product of Example 3", "protocol": "The ratio between the bulk density and the tapped bulk density (Hausner Ratio) of the Hydrobromide was determined using standard methods (“Pharmaceutics—The Science of Dosage Form Design”, editor M. Aulton, 1988, published by: Churchill Livingstone)."}}}
{"smiles": "Br.CN(CCOc1ccc(CC2SC(=O)NC2=O)cc1)c1ccccn1", "note": "(stereo not drawn) [Hydrobromide, 5-[4-[2-(N-methyl-N-(2-pyridyl)amino)ethoxy]benzyl]thiazolidine-2,4-dione hydrobromide]", "values": [{"measurement": "solubility", "setting": "[1]", "value": 6000, "unit": "µg/mL"}, {"measurement": "Solid state stability: HPLC assay", "setting": "[2]; 40° C./75% RH, open exposure", "value": 98, "unit": "% initial"}, {"measurement": "Solid state stability: degradation", "setting": "[2]; 40° C./75% RH, open exposure", "value": "No significant degradation observed"}, {"measurement": "Solid state stability: HPLC assay", "setting": "[2]; 50° C., closed", "value": 98, "unit": "% initial"}, {"measurement": "Solid state stability: degradation", "setting": "[2]; 50° C., closed", "value": "No significant degradation observed"}, {"measurement": "Hausner Ratio", "setting": "[3]", "value": 1.3}]}
